Data set [1] relates to VC199 [sir-2.1(ok434)]. The experiment in a line: Lipofuscin autofluorescence measurement, VC199. Conditions: increasing concentrations of SA, day 15; p=0.50. The class given is in vivo, C. elegans. Here is the method: As with the N2 strain, the present inventors treated VC199 nematodes with increasing concentrations of SA and assessed the age-dependent accumulation of autofluorescent lipofuscin granules and decrease in pharyngeal pumping rate.
Synchronized late L4/early young adult worms were plated on FUDR containing SA-OP50-seeded NGM plates and worms were maintained at 20° C. Every fifth day, 10-15 worms were mounted onto 2% agar pads and anesthetized with 3 mM levamisole in DMSO. Images were taken at 250-ms exposure under a DAPI filter using an epifluorescence microscope (Nikon Eclipse 80i) equipped with a Lambda LS Xenon lamp (Sutter Instrument Company) and Nikon Plan Fluor 20× dry and Nikon Plan Apo 60×1.3 oil objectives. The fluorescence was calculated using ImageJ software.

Data set [2] deals with RB981 [F19F10.5(ok888) V]. The experiment in a line: Longevity assay, ets-7 gene knock-out strain. Format: in vivo, C. elegans. The conditions noted are these: 500 μM SA; 0 μM SA 16 days; p>0.05. The text has this:
First, to validate the microarray results, the present inventors performed real-time RT-PCR on four genes, siah-1, sma-4, F13D12.6, and ets-7 (FIG. 6B). […] Messenger RNA levels for siah-1 and sma-4 were decreased by nearly 25%, as well as F13D12.6 and ets-7 were increased by nearly 25% by SA administration (p<0.05). Pathway Analysis using Gene Ontology (GO) with WEB-based Gene SeT Analysis Toolkit (WEBGESTALT <http://bioinfo.vanderbilt.edu/webgestalt/>) highlighted the metabolic process, lipid metabolic process, proteolysis pathways among many others as being altered favorably by the administration of SA (see Supplemental Data). From the array data confirmed by RT-PCR, the present inventors identified the ETS class transcription factor ETS-7 as a protein of interest. […] In order to test this, the present inventors carried out real-time RT-PCR quantification of ets-7 in non-functional SIR-2.1 mutant nematodes treated with increasing doses of SA (FIG. 6E). […]
Survival cultures were grown on 60-mm agar plates; after the late-stage L4/young adult molt, approximately 100 adults were transferred onto SA-OP50-seeded NGM plates. […] Worms were maintained at 20° C. and live worms were counted during transfer to freshly made SA-OP50-NGM agar plates every 2-3 days. Survival was scored as movement upon slight touch with the platinum wire. […]

Data set [3] concerns N2 WT C. elegans. The experiment in a line: mtDNA copy number by qPCR, N2. Format: in vivo. Conditions: with age or with SA treatment. The text has this: Mitochondria lie at the center of aging biology, playing crucial roles in energy production, carbon substrate metabolism, apoptosis regulation, and redox balance and signaling. Since sirtuins play a major role in regulating mitochondrial function, the present inventors next wanted to investigate whether SA was exerting any of its effects via protection of mitochondrial processes. To investigate SA's effects on mitochondrial respiration, the present inventors administered SA to WT N2 (FIG. 5A) and non-functional SIR-2.1 mutant worms (FIG. 5B) and measured oxygen consumption rate (OCR) in whole worms over several days. […] The present inventors also examined the effect of SA treatment on mitochondrial DNA (mtDNA) integrity.
Relative mitochondrial and nuclear copy number were measured by quantitative, real-time PCR [90]. Primers for NADH dehydrogenase unit 1 (nd1) and a 164 bp region of the cox-4 gene were used in determination of mtDNA copy number. The nd1 forward primer 5′-[…]-3′ and reverse primer 5′-[…]-3′. Cox-4 forward primer 5′-GCCGACTGGAAGAACTTGTC-3′ and reverse primer 5′-[…]-3′. […] Amplified products were detected with SYBR Green (iQ™ SYBR® Green Supermix, Bio-Rad) and fluorescent signal intensities were determined by CFX96 Touch™ Real-Time PCR Detection System (Bio-Rad) by software CFX Manager™ (version 3.1). […]
On the technique in general: Real-time PCR tracks product formation cycle by cycle.

The conditions of data set [4]: compared with pyridoxamine (PM); cited from earlier work.

As to `NCc1ccccc1O` [SA, salicylamine], the accumulation of lipofuscin entry in data set [1] is listed as “none of the doses of SA used were able to decrease the accumulation of lipofuscin”. This compound also registered a median lifespan in data set [2] of 15 days. In data set [3], the “mtDNA copy number relative to nuclear DNA” value is given as “no significant difference”. The lipophilicity entry in data set [4] is recorded as “more lipophilic”.

(Values after patent US11633370B2, “Use of scavengers of reactive gamma-ketoaldehydes to extend cell lifespan and healthspan” (Vanderbilt University, priority 2016, dated 2023).)
